Data on four molecules can be found in publication PMC12514841 (Protein Science : A Publication of the Protein Society, 2025).

Assay [1] deals with T1, wild-type (WT) BlaC (Mycobacterium tuberculosis, UniProt P9WKD3).
T1 construct: 6xHis tag with TEV cleavage site (N); made in house; host or cells: E. coli BL21 (DE3) pLysS
T1 sequence (P9WKD3 35-307): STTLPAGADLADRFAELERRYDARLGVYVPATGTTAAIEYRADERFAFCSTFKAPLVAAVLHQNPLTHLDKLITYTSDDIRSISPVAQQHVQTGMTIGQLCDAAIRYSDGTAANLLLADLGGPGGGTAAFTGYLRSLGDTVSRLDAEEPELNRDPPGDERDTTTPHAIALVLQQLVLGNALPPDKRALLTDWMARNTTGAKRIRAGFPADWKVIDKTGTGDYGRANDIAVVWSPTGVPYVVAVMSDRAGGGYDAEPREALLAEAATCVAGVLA
Type of assay: biochemical. To be noted: pH 6.4.

The target of assay [2] is T1, wild-type (WT) BlaC. Further details: method as in Radojković, Chikunova, et al., [2025]. To be noted: 100 mM NaPi, pH 6.4, 25°C, ref Radojković, Chikunova, et al., [2025]; cited from earlier work.
Assay [3] has as its system E. coli KA797 cells producing BlaC S130G. Type of assay: cell-based.
Assay [4] has as its system E. coli KA797 cells producing BlaC I105Y. Type of assay: cell-based.
Assay [5] relates to E. coli KA797 cells producing BlaC I105G. Type of assay: cell-based.
Assay [6] relates to E. coli KA797 cells producing BlaC I105Y-S130G. Type of assay: cell-based.
Assay [7] deals with E. coli KA797 cells, pUK21 vector without blaC gene. Put plainly: Minimum inhibitory concentration determination. Type of assay: cell-based. The note with it: Escherichia coli, 16 h, 37°C, read-out: MIC carbenicillin. The method, then:
(§1) The MIC was determined for E. coli KA797 cells carrying various pUK21‐blaC plasmids with the lac promoter and tat‐signal peptide upstream of the blaC gene (Figure S7) (Radojković, van Ingen, et al., [2025]). Overnight cultures of E. coli were inoculated into fresh LB medium with 50 μg/mL kanamycin and incubated at 37°C until OD600 reached 2. […] The concentration of the selection antibiotic was increased in 2‐fold increments. The plate was incubated for 16 h at 37°C in a Bioscreen C Pro plate reader with continuous shaking, and the OD600 was recorded every 15 min. The MIC was defined as the concentration of the selection antibiotic at which no increase in OD600 was observed.

Assay [8] has as its system E. coli KA797 cells producing wild-type BlaC. Put plainly: Minimum inhibitory concentration determination. Type of assay: cell-based. To be noted: Escherichia coli. As to the method:
as §1

For assay [9], the system named is E. coli KA797 cells producing BlaC G132N. Type of assay: cell-based.
For assay [10], the system named is E. coli KA797 cells producing BlaC I105G-G132N. Type of assay: cell-based.
In the next assay the target is T2, wild-type BlaC (Mycobacterium tuberculosis, UniProt P9WKD3).
T2 construct: 6xHis tag with TEV cleavage site (N); made in house; host or cells: E. coli BL21 (DE3) pLysS
T2 sequence (P9WKD3 35-307): T1 sequence (P9WKD3 35-307)
Type of assay: biochemical.

[11] abbreviates: in combination with carbenicillin at 50 μg/mL.

The structures appear in SMILES notation. In brackets after ≈: the same amount, converted by molar mass. Several values for one entry are separate records, joined by “and”; a condition that tells them apart may be missing. Equal entries are not always repeated. Where two headings read alike, the source gives them in different places.

For `CC1(C)S[C@@H]2[C@H](NC(=O)[C@H](N)c3ccccc3)C(=O)N2[C@H]1C(=O)O` [Ampicillin, ampicillin], at wild-type (WT) BlaC [1], the KMapp is reported as 46 ± 12 µM, the “k cat /K M ^app relative to the wild-type” value came out at 1, the kcat was determined as 9 ± 1 s⁻¹ and the kcat/KMapp came to 210000 ± 10000 M⁻¹ s⁻¹. In addition, the “kcat/KMapp relative to the wild-type” value at wild-type (WT) BlaC [1] worked out at 1. Further, at wild-type (WT) BlaC [2], the “K M ^app” value was 68 ± 3 µM; the k cat was 14 ± 2 s⁻¹; the “k cat/K M ^app” value was 0.21 ± 0.01 μM^−1 s^−1 and 0.21 ± 0.01 ^a μM^−1 s^−1.
Turning to `CC1(C)S[C@@H]2[C@H](NC(=O)C(C(=O)O)c3ccccc3)C(=O)N2[C@H]1C(=O)O` (stereo partly shown) [Carbenicillin, carbenicillin], the MIC carbenicillin turned out to be 100 µg/mL (≈ 264 µM) in [3] (16 h, 37°C); 6400 µg/mL (≈ 16900 µM) in assay [4] (16 h, 37°C); 800 µg/mL (≈ 2110 µM) in [5] (16 h, 37°C); 800 µg/mL (≈ 2110 µM) in assay [6] (16 h, 37°C); 400 µg/mL (≈ 1060 µM) in assay [9] (16 h, 37°C); 800 µg/mL (≈ 2110 µM) in assay [10] (16 h, 37°C). Besides, the MIC in [7] came to 10 µg/mL (≈ 26.4 µM); in [8] (16 h, 37°C, read-out: MIC carbenicillin), 800 µg/mL (≈ 2110 µM). The “k cat /K M ^app relative to the wild-type” value on wild-type (WT) BlaC [1] is given as 1. Besides, the “MIC times lower than the wild-type” value in [9] is reported as 2 times. The “K M ^app” value on wild-type (WT) BlaC [2] was 5.5 ± 0.7 µM. For the same molecule, on wild-type (WT) BlaC [2], the k cat was 0.51 ± 0.02 s⁻¹. Moreover, the “k cat/K M ^app” value on wild-type (WT) BlaC [2] was 0.09 ± 0.01 ^a μM^−1 s^−1.
In the case of `O=C(O)[C@H]1/C(=C/CO)O[C@@H]2CC(=O)N21` [Clavulanic acid, clavulanic acid], the MIC clavulanic acid in assay [3] (setting [11]) was 4 µg/mL; in assay [4] (setting [11]) it was 2 µg/mL; in assay [5] (setting [11]), 4 µg/mL; in assay [6] (setting [11]) it was 32 µg/mL; in assay [9] (setting [11]) it was 1 µg/mL; in assay [10] (setting [11]) it was 16 µg/mL. Besides, the MIC in assay [8] (read-out: MIC clavulanic acid, in combination with carbenicillin at 50 μg/mL) was 1 µg/mL. The “incubation time after which the enzyme reaches its original activity again” value at wild-type BlaC was found to be 2 h. Further, on wild-type BlaC, the “time to full inhibition of the enzyme” value is given as < 5 min.
As to `O=C(Cc1cccs1)N[C@@H]1C(=O)N2C(C(=O)O)=C(/C=C/c3ccc([N+](=O)[O-])cc3[N+](=O)[O-])CS[C@H]12` [Nitrocefin, nitrocefin], on wild-type (WT) BlaC [1], the “K M ^app” value stood at 180 ± 70 µM, the k cat was determined as 90 ± 20 s⁻¹, the “k cat /K M ^app relative to the wild-type” value was 1 and the “k cat/K M ^app” value is 0.5 ± 0.2 ^a μM^−1 s^−1.

For orientation: kcat means the maximal rate divided by the concentration of active sites.
